Assay results published in US20130012432A1, “Peptides for Treatment of Obesity” (Novo Nordisk A/S, priority 2010, published 2013).
In brackets after ≈: the same amount, converted by molar mass. Positions of bridges follow the written chain, without caps; N, C: chain ends. Non-standard residues stand in square brackets, D forms with d. Residues, ends and D or L forms follow the SMILES beside them. Groups on a side chain read outwards from the residue. *: point of attachment. Palmitoyl(16-(5-tetrazolyl)) = O=C(CCCCCCCCCCCCCCCc1nnn[nH]1)*; Lys(CH2CO2H)2 = N[C@@H](CCCCN(CC(=O)O)CC(=O)O)C(=O)O; X1 = O=C(O)CCCCCCCCCCCCCCCCC(=O)NCCOCCOCCN*; C17 diacid = O=C(O)CCCCCCCCCCCCCCCC(=O)*; Orn = NCCC[C@H](N)C(=O)O; AEEA = NCCOCCOCC(=O)O

How the values were obtained:
MC1 receptor = MC1 receptor (Homo sapiens, UniProt Q01726); test: biochemical
Summary of the method: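 Radioligand competition on membranes (25 μg/ml) of BHK cells stably expressing MC1, with 22 pM final 125I-NDP-α-MSH in 25 mM HEPES pH 7.4, Ca/Mg, EDTA, 0.1% HSA (or ovalbumin), 0.005% Tween 20. Incubated 90 min at 30 °C, filtered over PEI-treated GF/B; curves fitted by non-linear regression.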

physchem = test: physchem
Protocol: From a stock solution in vehicle, either H2O or 10 mM phosphate, containing 1 mg (as weighed) compound per ml, 8-11 aliquots are withdrawn and pH-adjusted individually with HCl/NaOH, to cover the whole pH range.

[1] = pH 7.4, Solubility Conc., pH 7.4, vehicle 10 mM phosphate
[2] = pH 7.5, Solubility Conc., pH 7.5, vehicle 10 mM phosphate
[3] = pH 7.7, Solubility Conc., pH 7.7, vehicle 10 mM phosphate

MC1 receptor, sequence (Q01726 whole entry): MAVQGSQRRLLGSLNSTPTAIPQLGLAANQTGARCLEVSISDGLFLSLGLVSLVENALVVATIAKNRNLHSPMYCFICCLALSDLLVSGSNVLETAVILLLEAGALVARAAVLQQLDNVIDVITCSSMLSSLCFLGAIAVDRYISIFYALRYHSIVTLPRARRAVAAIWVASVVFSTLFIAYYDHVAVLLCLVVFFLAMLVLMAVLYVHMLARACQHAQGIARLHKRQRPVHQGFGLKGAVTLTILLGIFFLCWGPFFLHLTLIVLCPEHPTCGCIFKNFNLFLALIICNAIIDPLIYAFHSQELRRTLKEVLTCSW

Structure (SMILES): CC(=O)N[C@H]1CCCCNC(=O)C[C@@H](C(=O)N2CCC[C@H]2C(=O)N2CCC[C@H]2C(=O)N[C@@H](Cc2c[nH]cn2)C(=O)N[C@@H](CCC(=O)O)C(=O)N[C@@H](CCC(=O)O)C(=O)N[C@@H](CO)C(=O)N[C@@H](CO)C(=O)N[C@@H](CCC(=O)O)C(=O)N[C@@H](CCCCNC(=O)COCCOCCNC(=O)CCCCCCCCCCCCCCCC(=O)O)C(N)=O)NC(=O)[C@H](Cc2c[nH]c3ccccc23)NC(=O)[C@H](CCCNC(=N)N)NC(=O)[C@@H](Cc2ccccc2)NC(=O)[C@H](Cc2c[nH]cn2)NC1=O [Example 52] (Ac-KH[dF]RWDPPHEESSEK([AEEA-C17 diacid])-NH2; lactam 1-6)
- Ki (MC1 receptor): > 10 µM
- solubility (physchem; pH 6.1, Solubility Conc.): 169 µM (≈ 399 µg/mL)
- solubility (physchem; pH 6.3, Solubility Conc.): 339 µM (≈ 800 µg/mL)
- solubility (physchem; pH 6.7, Solubility Conc.): 376 µM (≈ 887 µg/mL)
- solubility (physchem; pH 7, Solubility Conc.): 372 µM (≈ 878 µg/mL)
- solubility (physchem; pH 7.3, Solubility Conc.): 378 µM (≈ 892 µg/mL)
- solubility (physchem; pH 7.5, Solubility Conc.): 382 µM (≈ 901 µg/mL)
- solubility (physchem; pH 7.6, Solubility Conc.): 381 µM (≈ 899 µg/mL)
- solubility (physchem; pH 8, Solubility Conc.): 391 µM (≈ 923 µg/mL)
- solubility (physchem; pH 8.3, Solubility Conc.): 390 µM (≈ 920 µg/mL)

Structure (SMILES): CC(=O)N[C@H]1CCCCNC(=O)C[C@@H](C(=O)N2CCC[C@H]2C(=O)N[C@@H](CO)C(=O)N[C@@H](CO)C(=O)N[C@@H](CO)C(=O)N[C@@H](CCCCN(CC(=O)O)CC(=O)O)C(=O)N[C@@H](CO)C(=O)N[C@@H](CO)C(=O)NCCOCCOCCNC(=O)CCCCCCCCCCCCCCCCC(=O)O)NC(=O)[C@H](Cc2c[nH]c3ccccc23)NC(=O)[C@H](CCCNC(=N)N)NC(=O)[C@@H](Cc2ccccc2)NC(=O)[C@H](Cc2c[nH]cn2)NC1=O [Example 53, Ac-c[Lys-His-D-Phe-Arg-Trp-Asp]-Pro-Ser-Ser-Ser-Lys(biscarboxymethyl)-Ser-Ser-NH(2-{2-[2-(17-carboxyheptadecanoylamino)ethoxy]ethoxy}ethyl)] (Ac-KH[dF]RWDPSSS[Lys(CH2CO2H)2]SS-X1; lactam 1-6)
- Ki (MC1 receptor): > 10 µM
- solubility (physchem; pH 6.6, Solubility Conc., pH 6.6, vehicle 10 mM phosphate): 82 µM (≈ 173 µg/mL)
- solubility (physchem; pH 6.9, Solubility Conc., pH 6.9, vehicle 10 mM phosphate): 159 µM (≈ 336 µg/mL)
- solubility (physchem; pH 7.2, Solubility Conc., pH 7.2, vehicle 10 mM phosphate): 337 µM (≈ 713 µg/mL)
- solubility (physchem; pH 7.3, Solubility Conc., pH 7.3, vehicle 10 mM phosphate): 396 µM (≈ 838 µg/mL)
- solubility (physchem; [1]): 410 µM (≈ 867 µg/mL)
- solubility (physchem; [2]): 385 µM (≈ 814 µg/mL)
- solubility (physchem; [3]): 393 µM (≈ 831 µg/mL)
- solubility (physchem; pH 7.9, Solubility Conc., pH 7.9, vehicle 10 mM phosphate): 425 µM (≈ 899 µg/mL)
- solubility (physchem; pH 8.2, Solubility Conc., pH 8.2, vehicle 10 mM phosphate): 403 µM (≈ 853 µg/mL)

Structure (SMILES): CC(=O)N[C@H]1CCCNC(=O)CC[C@@H](C(=O)N2CCC[C@H]2C(=O)N[C@@H](CO)C(=O)N[C@@H](CO)C(=O)N[C@@H](CO)C(=O)N[C@@H](CCCCN(CC(=O)O)CC(=O)O)C(=O)N[C@@H](CO)C(=O)N[C@@H](CO)C(=O)N[C@@H](CCCCNC(=O)COCCOCCNC(=O)CCCCCCCCCCCCCCCC(=O)O)C(N)=O)NC(=O)[C@H](Cc2c[nH]c3ccccc23)NC(=O)[C@H](CCCNC(=N)N)NC(=O)[C@@H](Cc2ccccc2)NC(=O)[C@H](Cc2c[nH]cn2)NC1=O [Example 57, Ac-c[Orn-His-D-Phe-Arg-Trp-Glu]-Pro-Ser-Ser-Ser-Lys(biscarboxymethyl)-Ser-Ser-Lys({2-[2-(16-carboxyhexadecanoylamino)ethoxy]ethoxy}acetyl)-NH2] (Ac-[Orn]H[dF]RWEPSSS[Lys(CH2CO2H)2]SSK([AEEA-C17 diacid])-NH2; lactam 1-6)
- Ki (MC1 receptor): > 10 µM
- solubility (physchem; pH 6.8, Solubility Conc., pH 6.8, vehicle 10 mM phosphate): 47 µM (≈ 105 µg/mL)
- solubility (physchem; pH 7.1, Solubility Conc., pH 7.1, vehicle 10 mM phosphate): 79 µM (≈ 177 µg/mL)
- solubility (physchem; [1]): 169 µM (≈ 379 µg/mL)
- solubility (physchem; [2]): 395 µM (≈ 886 µg/mL)
- Solubility Conc. (physchem; pH 7.5, vehicle 10 mM phosphate): 284 µM (≈ 637 µg/mL)
- solubility (physchem; pH 7.6, Solubility Conc., pH 7.6, vehicle 10 mM phosphate): 521 µM (≈ 1170 µg/mL)
- solubility (physchem; [3]): 408 µM (≈ 915 µg/mL)
- solubility (physchem; pH 7.8, Solubility Conc., pH 7.8, vehicle 10 mM phosphate): 524 µM (≈ 1180 µg/mL)
- solubility (physchem; pH 8, Solubility Conc., pH 8.0, vehicle 10 mM phosphate): 392 µM (≈ 879 µg/mL)

Structure (SMILES): CC(=O)N[C@H]1CSSC[C@@H](C(=O)N2CCC[C@H]2C(=O)N2CCC[C@H]2C(=O)N[C@@H](CCCCN)C(=O)N[C@@H](CCC(=O)O)C(=O)N[C@@H](CCCCN(CC(=O)O)CC(=O)O)C(=O)N[C@@H](CCCCNC(=O)COCCOCCNC(=O)CCCCCCCCCCCCCCCc2nnn[nH]2)C(N)=O)NC(=O)[C@H](Cc2c[nH]c3ccccc23)NC(=O)[C@H](CCCNC(=N)N)NC(=O)[C@@H](Cc2ccccc2)NC(=O)[C@H](Cc2c[nH]cn2)NC(=O)[C@H](CCC(=O)O)NC1=O [Example 63, Ac-c[Cys-Glu-His-D-Phe-Arg-Trp-Cys]-Pro-Pro-Lys-Glu-Lys(biscarboxymethyl)-Lys[(2-{2-[16-(tetrazol-5-yl)hexadecanoylamino]ethoxy}ethoxy)acetyl]-NH2] (Ac-CEH[dF]RWCPPKE[Lys(CH2CO2H)2]K([AEEA-Palmitoyl(16-(5-tetrazolyl))])-NH2; disulfide 1-7)
- Ki (MC1 receptor): > 10 µM
- solubility (physchem; pH 3.8, Solubility Conc.): 33 µM (≈ 75.7 µg/mL)
- solubility (physchem; pH 4.2, Solubility Conc.): 23 µM (≈ 52.8 µg/mL)
- solubility (physchem; pH 4.6, Solubility Conc.): 28 µM (≈ 64.3 µg/mL)
- solubility (physchem; pH 5.1, Solubility Conc.): 78 µM (≈ 179 µg/mL)
- solubility (physchem; pH 6, Solubility Conc.): 484 µM (≈ 1110 µg/mL)
- solubility (physchem; pH 7.9, Solubility Conc.): 451 µM (≈ 1030 µg/mL)
- solubility (physchem; pH 8.1, Solubility Conc.): 417 µM (≈ 957 µg/mL)
- solubility (physchem; pH 8.5, Solubility Conc.): 495 µM (≈ 1140 µg/mL)
- solubility (physchem; pH 8.9, Solubility Conc.): 465 µM (≈ 1070 µg/mL)
